US8232308B2, “Methods for treating a disease in which Rho kinase is involved” (UBE Industries, Ltd., priority 2003, dated 2012)
Counter-ions that a name gives are not always drawn.

Each compound was assayed against T1, activated ROCK II (Rattus norvegicus, UniProt Q62868) (assay: Test for Evaluation of Inhibiting Activity to Rho Kinase). Settings: S6 Kinase Substrate Peptide, [γ-32P]ATP, 30° C. for 15 minutes, Ki=IC50/(1+S/Km).
T1 construct: purchased Upstate Biotechnology 14-338
Type: biochemical
Protocol: In order to find the utility of the present invention compound, a Rho kinase inhibiting activity of the present invention compound was evaluated. The details thereof will be illustrated under the item of “Pharmacological Test (Test for Evaluation of Rho Kinase Inhibiting Activity)” in the Examples which will be mentioned later. The evaluation of the Rho kinase inhibiting activity of the present invention compound was carried out in accordance with the methods mentioned in J. Biol. Chem., 274, 32418 (1999) by Kaibuchi, et al. and mentioned in the instruction manual for use attached to the commercially available activated ROCK II [Upstate Biotechnology, Catalog No. 14-338 (5 units/50 μl)].
A. Test for Evaluation of Inhibiting Activity to Rho Kinase
In order to test the usefulness of the compounds of the present invention as a Rho kinase inhibitor, inhibiting activities of the compounds of the present invention to Rho kinase were evaluated and investigated in accordance with the methods of Kaibuchi, et al. mentioned in J. Biol. Chem., 274, 32418, 1999 and also with the methods mentioned in the instruction manual for use attached to commercially available activated ROCK II [Upstate Biotechnology, Catalog No. 14-338, (5 unite/50 μl)]. With regard to the test compounds, the compounds 5-1 to 5-73 (except the compounds 5-2, 5-9, 5-18, 5-37 and 5-38) were used.
A buffer was prepared so as to make tris(hydroxymethyl)aminomethane (Tris) (pH 7.5), 50 mM, ethyleneglycol bis(β-aminoethyl ether)-N,N,N′,N′-tetraacetic acid (EGTA), 2 mM, ethylenediaminetetraacetic acid (EDTA), 1 mM, magnesium chloride (MgCl2) 5 mM, β-glycerol phosphate, 5 mM, and dithiothreitol (DTT), 2 mM, by mixing them.
A mixed liquid of a 10 mM ATP solution with a commercially available [γ-^32P]ATP solution [NEN, Code No. NEG-002A] was diluted with the buffer to prepare a 300 μM ATP [γ-^32P]ATP solution.
A Commercially Available Activated ROCK II [Upstate Biotechnology, Catalog No. 14-338, (5 Units/50 μl)] was diluted to a concentration of 1/100 with the buffer to prepare an activated ROCK II solution.
A S6 Kinase Substrate Peptide [Upstate Biotechnology, Catalog No. 12-124,] (2 mg) was dissolved in distilled water to prepare a 1 mM substrate solution.
A test compound was dissolved in 10% aqueous dimethyl sulfoxide solution.
1) The test compound solution is placed in a microtube.
2) The 300 μM ATP [γ-^32P]ATP solution is added to the microtube followed by cooling to 4° C.
3) After that, a permanently activated ROCK II solution, 1 mM substrate solution and buffer are added to each microtube in that order, and the whole is mixed and cooled again at 4° C.
4) The microtube is placed in an incubator (30° C.) and the mixture is subjected to reaction for 15 minutes.
5) After cooling to 4° C., a 250 mM phosphoric acid solution (5 μl) is added to each microtube to stop the reaction.
6) The reaction solution (30 μl) is taken out from each microtube and spotted on a filter paper (Whatman P81) so that the reaction product (phosphorylated substrate) is adsorbed to the filter paper.
7) The filter paper is transferred to a beaker in which a 75 mM phosphoric acid solution is placed and shaken for 5 minutes so that unreacted [γ-^32P]AfP is washed out. The washing operation as such is carried out four times.
8) After that, the filter paper is dipped in ethanol to dehydrate and energy amount (radioactivity) of the reaction product adsorbed to the filter paper is measured with a liquid scintillation counter.
The IC50 value was calculated by an XL-fit (IDBS).
The Ki value is calculated by the following formula. S is an ATP concentration contained in the reaction solution while Km is a Michaelis-Menten constant. Ki=IC50/(1+S/Km)

T1 sequence (Q62868 11-550 limits assumed): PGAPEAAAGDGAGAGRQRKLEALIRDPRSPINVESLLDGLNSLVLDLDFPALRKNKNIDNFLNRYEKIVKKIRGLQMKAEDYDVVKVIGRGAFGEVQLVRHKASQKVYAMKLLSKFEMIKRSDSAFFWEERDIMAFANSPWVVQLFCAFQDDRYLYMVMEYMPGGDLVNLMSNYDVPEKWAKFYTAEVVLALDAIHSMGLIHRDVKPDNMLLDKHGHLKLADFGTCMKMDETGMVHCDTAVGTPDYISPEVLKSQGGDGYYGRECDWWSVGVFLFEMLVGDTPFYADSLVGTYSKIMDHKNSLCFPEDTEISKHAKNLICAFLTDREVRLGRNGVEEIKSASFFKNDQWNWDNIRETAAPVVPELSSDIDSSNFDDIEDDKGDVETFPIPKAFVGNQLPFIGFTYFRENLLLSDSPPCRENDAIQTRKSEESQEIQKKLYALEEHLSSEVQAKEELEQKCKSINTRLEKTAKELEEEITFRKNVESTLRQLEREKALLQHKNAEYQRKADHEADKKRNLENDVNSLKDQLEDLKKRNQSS

Row | Compound | Ki [nM]
1 | CC(C)(N)c1ccc(-c2ccc3[nH]ncc3c2-c2ccccn2)cc1 [Compound 5-63, 5-[4-(1-Amino-1-methylethyl)phenyl]-4-(pyridin-2-yl)-1H-indazole trihydrochloride] | 241
2 | CC(C)(N)c1ccc(-c2ccc3[nH]ncc3c2-c2cn[nH]c2)nc1 [Compound 5-65, 5-[5-(1-Amino-1-methylethyl)pyridin-2-yl]-4-(pyrazol-4-yl)-1H-indazole tetrahydrochloride] | 56
3 | CCC(N)(CC)c1ccc(-c2ccc3[nH]ncc3c2N(C)C)cc1 [Compound 5-25, 5-[4-(1-Amino-1-ethylpropyl)phenyl]-4-dimethylamino-1H-indazole trihydrochloride] | 23
4 | CC(C)(N)c1ccc(-c2ccc3[nH]ncc3c2N)cc1 [Compound 5-5, 4-Amino-5-[4-(1-amino-1-methylethyl)phenyl]-1H-indazole trihydrochloride] | 44
5 | CCC(N)(CC)c1ccc(-c2ccc3[nH]ncc3c2OC)nc1 [Compound 5-51, 5-[5-(1-Amino-1-ethylpropyl)pyridin-2-yl]-4-methoxy-1H-indazole trihydrochloride] | 38
6 | C=Cc1c(-c2ccc(C(C)(C)N)cn2)ccc2[nH]ncc12 [Compound 5-30, 5-[5-(1-Amino-1-methylethyl)pyridin-2-yl]-4-vinyl-1H-indazole trihydrochloride] | 17
7 | CC(C)(N)c1ccc(-c2ccc3[nH]ncc3c2-c2cccnc2)cc1 [Compound 5-62, 5-[4-(1-Amino-1-methylethyl)phenyl]-4-(pyridin-3-yl)-1H-indazole trihydrochloride] | 126
8 | COC(=O)c1n[nH]c2ccc(-c3ccc(C(C)(C)N)cc3)cc12 [Compound 5-8, 5-[4-(1-Amino-1-methylethyl)phenyl]-3-methoxy-carbonyl-1H-indazole dihydrochloride] | 97
9 | CC(C)(N)c1ccc(-c2ccc3[nH]ncc3c2C2CC2)nc1 [Compound 5-29, 5-[5-(1-Amino-1-methylethyl)pyridin-2-yl]-4-cyclo-propyl-1H-indazole trihydrochloride] | 2.7
10 | NCc1ccc(-c2ccc3[nH]ncc3c2N)cc1 [Compound 5-20, 4-Amino-5-[4-(aminomethyl)phenyl]-1H-indazole trihydrochloride] | 61
11 | CC(C)(N)c1ccc(-c2ccc3[nH]nc(C=NO)c3c2)cc1 [Compound 5-12, 5-[4-(1-Amino-1-methylethyl)phenyl]-3-hydroxyimino-methyl-1H-indazole monohydrochloride] | 7.5
12 | CC(C)(N)c1ccc(-c2ccc3[nH]nc(C(N)=O)c3c2)cc1 [Compound 5-10, 3-Aminocarbonyl-5-[4-(1-amino-1-methylethyl)phenyl]-1H-indazole monohydrochloride] | 134
13 | CN(C)c1c(-c2ccc(CN)cc2)ccc2[nH]ncc12 [Compound 5-23, 5-[4-(Aminomethyl)phenyl]-4-dimethylamino-1H-indazole trihydrochloride] | 29
14 | CC(C)Oc1c(-c2ccc(C(C)(C)N)cc2)ccc2[nH]ncc12 [Compound 5-40, 5-[4-(1-Amino-1-methylethyl)phenyl]-4-isopropoxy-1H-indazole dihydrochloride] | 33
15 | CC(C)(N)c1ccc(-c2ccc3[nH]nc(C#N)c3c2)cc1 [Compound 5-13, 5-[4-(1-Amino-1-methylethyl)phenyl]-3-cyano-1H-indazole dihydrochloride] | 103
16 | C=CCOc1c(-c2ccc(C(C)(C)N)cc2)ccc2[nH]ncc12 [Compound 5-57, 4-Allyloxy-5-[4-(1-amino-1-methylethyl)phenyl]-1H-indazole dihydrochloride] | 23
17 | CC(C)(N)c1ccc(-c2ccc3[nH]ncc3c2[N+](=O)[O-])nc1 [Compound 5-17, 5-[5-(1-Amino-1-methylethyl)pyridin-2-yl]-4-nitro-1H-indazole dihydrochloride] | 199

Row | Compound | Ki [nM]
18 | CC(C)(N)c1ccc(-c2ccc3[nH]ncc3c2CCO)cc1 [Compound 5-32, 5-[4-(1-Amino-1-methylethyl)phenyl]-4-(2-hydroxy-ethyl)-1H-indazole dihydrochloride] | 47
19 | CCOc1c(-c2ccc(C(C)(C)N)cc2)ccc2[nH]ncc12 [Compound 5-49, 5-[4-(1-Amino-1-methylethyl)phenyl]-4-ethoxy-1H-indazole dihydrochloride] | 17
20 | C=C(C)c1n[nH]c2ccc(-c3ccc(C(C)(C)N)cc3)cc12 [Compound 5-15, 5-[4-(1-Amino-1-methylethyl)phenyl]-3-(1-methyl-vinyl)-1H-indazole monotrifluoroacetate] | 56
21 | CC(N)c1ccc(-c2ccc3[nH]ncc3c2N(C)C)cc1 (stereo not drawn) [Compound 5-26, 5-[4-(1-Aminoethyl)phenyl]-4-dimethylamino-1H-indazole trihydrochloride] | 27
22 | CC(C)(N)c1ccc(-c2ccc3[nH]ncc3c2OC(F)F)cc1 [Compound 5-53, 5-[4-(1-Amino-1-methylethyl)phenyl]-4-difluoro-methoxy-1H-indazole dihydrochloride] | 3.6
23 | COc1c(-c2ccc(C(C)(C)N)cc2)ccc2[nH]ncc12 [Compound 5-44, 5-[4-(1-Amino-1-methylethyl)phenyl]-4-methoxy-1H-indazole dihydrochloride] | 13
24 | CCCCOc1c(-c2ccc(C(C)(C)N)cc2)ccc2[nH]ncc12 [Compound 5-55, 5-[4-(1-Amino-1-methylethyl)phenyl]-4-n-butoxy-1H-indazole dihydrochloride] | 13
25 | CC(C)(N)c1ccc(-c2ccc3[nH]ncc3c2N2CCCCC2)cc1 [Compound 5-41, 5-[4-(1-Amino-1-methylethyl)phenyl]-4-(piperidin-1-yl)-1H-indazole trihydrochloride] | 14
26 | CCOc1c(-c2ccc(C(N)(CC)CC)cn2)ccc2[nH]ncc12 [Compound 5-60, 5-[5-(1-Amino-1-ethylpropyl)pyridin-2-yl]-4-ethoxy-1H-indazole trihydrochloride] | 35
27 | CC(C)Oc1c(-c2ccc(C(C)(C)N)cn2)ccc2[nH]ncc12 [Compound 5-50, 5-[5-(1-Amino-1-methylethyl)pyridin-2-yl]-4-isopropoxy-1H-indazole trihydrochloride] | 84
28 | CC(C)(N)c1cnc(-c2ccc3[nH]ncc3c2)c(Cl)c1 [Compound 5-27, 5-[5-(1-Amino-1-methylethyl)-3-chloropyridin-2-yl]-1H-indazole trihydrochloride] | 86
29 | CC(C)(N)c1ccc(-c2ccc3[nH]ncc3c2-c2cc[nH]n2)cc1 [Compound 5-67, 5-[4-(1-Amino-1-methylethyl)phenyl]-4-(pyrazol-3-yl)-1H-indazole trihydrochloride] | 11
30 | CC(C)(N)c1ccc(-c2ccc3[nH]ncc3c2OC2CC2)nc1 [Compound 5-70, 5-[5-(1-Amino-1-methylethyl)pyridin-2-yl]-4-cyclo-propyloxy-1H-indazole trihydrochloride] | 28
31 | NCc1ccc(-c2ccc3[nH]ncc3c2[N+](=O)[O-])cc1 [Compound 5-19, 5-[4-(Aminomethyl)phenyl]-4-nitro-1H-indazole dihydrochloride] | 55
32 | CNc1c(-c2ccc(C(C)(C)N)cc2)ccc2[nH]ncc12 [Compound 5-7, 5-[4-(1-Amino-1-methylethyl)phenyl]-4-methylamino-1H-indazole trihydrochloride] | 15
33 | CCc1c(-c2ccc(C(C)(C)N)cn2)ccc2[nH]ncc12 [Compound 5-28, 5-[5-(1-Amino-1-methylethyl)pyridin-2-yl]-4-ethyl-1H-indazole trihydrochloride] | 15
